Where two headings read alike, the source gives them in different places.
Columns and labels:
PC3 cells [1] = experiment: Inhibition of PC3 cell low adsorption (adherent cell count, 4 h); format: cell-based; settings: Homo sapiens, PC-3; 4 h treatment; read-out: IC50 against PC3 cell low adsorption
Experimental: PC3 cells were seeded at 8000 cells/well. 4 h after the cells were treated with a compound, the number of adherent cells was counted. The inhibition percentage and IC50 of the compound were calculated compared to the DMSO group.

PC3 cells [2] = experiment: PC3 cell proliferation, 2D activity assay (Cell Titer-Lumi, 72 h); format: cell-based, human; settings: Homo sapiens, PC-3, read-out: 2D inhibitory activity against PC3 cells IC50
[3] = In vivo pharmacokinetic experiment in CD-1 mice; settings: mouse, plasma, CD-1 female mice; for Vd: read-out: Vdss
Experimental: […] The mice were fasted for at least 12 h before the administration and given food 4 h after the administration, and they were given ad libitum access to water during the experiment.
On the day of the experiment, animals in the intravenous group were given the corresponding compound by single injection via the tail vein at an administration volume of 10 mL/kg; and animals in the oral group were given the corresponding compound by single intragastric injection at an administration volume of 10 mL/kg. The animals were weighed before administration, and the administration volume was calculated according to the body weight. The sample collection time points were 0.083 h, 0.167 h, 0.5 h, 1 h, 2 h, 4 h, 8 h, and 24 h. About 200 μL of whole blood was collected through the orbital venous plexus at each time point and used to prepare plasma for concentration determination by high-performance liquid chromatography-tandem mass spectrometry (LC-MS/MS). The plasma concentrations were processed using a non-compartmental model of Winnolin pharmacokinetic software, and the pharmacokinetic parameters were calculated using a linear-log trapezoidal method.

PC3 cells [4] = experiment: PC3 cell proliferation, 3D activity assay (3D culture, 14 days); format: cell-based, human; settings: Homo sapiens, PC-3, 336 h, read-out: 3D inhibitory activity against PC3 cells IC50
[5] = tested on: Human prostate cancer PC3 cells; experiment: In vivo efficacy, PC3 xenograft in nude mice; set-up: species or system mouse; settings: PC-3 model, 25 mg/kg, QD (21 days), PO
Experimental: The groups were as follows: 1) a solvent control group, 8 mice; and 2) a control compound group and a test compound group, 8 mice each. The mice in the solvent control group were intragastrically administered 0.5% CMC-Na twice a day; the mice in the compound groups were intragastrically administered 0.5% MC-Tween-80 suspension once a day. On Tuesday and Thursday each week, tumor volumes and body weight of the mice were measured, and the nude mice were sacrificed on day 21 after the administration. […] The toxicity of the compounds was evaluated according to the body weight of the mice.

[6] = tested on: phosphorylation at the FAK 397 site; experiment: Inhibition of Y397 phosphorylation in PC3 cells (ELISA); format: cell-based; settings: Homo sapiens, PC-3, 3 h treatment, read-out: IC50 against Y397 phosphorylation
Experimental: PC3 cells were seeded at 8000 cells/well. […] The inhibition percentage and IC50 of the compound were calculated compared to the DMSO group.

FAK recombinant protein = FAK recombinant protein (Homo sapiens (Human), UniProt Q05397); experiment: Inhibitory activity against FAK enzyme (HTRF, TK substrate); format: biochemical
Experimental: A compound serially diluted with DMSO was mixed with a FAK recombinant protein. After the mixture was left to stand at room temperature for 10 min, a biotin-labeled TK substrate (TK) and ATP were added. […] The inhibition percentage and IC50 of the compound were calculated compared to the DMSO control group.

[7] = tested on: Human pancreatic cancer Mia PaCa-2 cells; experiment: In vivo efficacy, Mia PaCa-2 xenograft in nude mice; set-up: species or system mouse; settings: MiaPaCa-2 model, 25 mg/kg PO QD 21 days
Experimental: The groups were as follows: 1) a solvent control group, 8 mice; and 2) a control compound group and a test compound group, 8 mice each. The mice in the solvent control group were intragastrically administered 0.5% CMC-Na twice a day; the mice in the compound groups were intragastrically administered 0.50% MC-Tween-80 suspension once a day. On Tuesday and Thursday each week, tumor volumes and body weight of the mice were measured, and the nude mice were sacrificed on day 21 after the administration. […] The toxicity of the compounds was evaluated according to the body weight of the mice.

[8] = intravenous, injection (1 mg/kg)

Chain of FAK recombinant protein (Q05397 whole entry): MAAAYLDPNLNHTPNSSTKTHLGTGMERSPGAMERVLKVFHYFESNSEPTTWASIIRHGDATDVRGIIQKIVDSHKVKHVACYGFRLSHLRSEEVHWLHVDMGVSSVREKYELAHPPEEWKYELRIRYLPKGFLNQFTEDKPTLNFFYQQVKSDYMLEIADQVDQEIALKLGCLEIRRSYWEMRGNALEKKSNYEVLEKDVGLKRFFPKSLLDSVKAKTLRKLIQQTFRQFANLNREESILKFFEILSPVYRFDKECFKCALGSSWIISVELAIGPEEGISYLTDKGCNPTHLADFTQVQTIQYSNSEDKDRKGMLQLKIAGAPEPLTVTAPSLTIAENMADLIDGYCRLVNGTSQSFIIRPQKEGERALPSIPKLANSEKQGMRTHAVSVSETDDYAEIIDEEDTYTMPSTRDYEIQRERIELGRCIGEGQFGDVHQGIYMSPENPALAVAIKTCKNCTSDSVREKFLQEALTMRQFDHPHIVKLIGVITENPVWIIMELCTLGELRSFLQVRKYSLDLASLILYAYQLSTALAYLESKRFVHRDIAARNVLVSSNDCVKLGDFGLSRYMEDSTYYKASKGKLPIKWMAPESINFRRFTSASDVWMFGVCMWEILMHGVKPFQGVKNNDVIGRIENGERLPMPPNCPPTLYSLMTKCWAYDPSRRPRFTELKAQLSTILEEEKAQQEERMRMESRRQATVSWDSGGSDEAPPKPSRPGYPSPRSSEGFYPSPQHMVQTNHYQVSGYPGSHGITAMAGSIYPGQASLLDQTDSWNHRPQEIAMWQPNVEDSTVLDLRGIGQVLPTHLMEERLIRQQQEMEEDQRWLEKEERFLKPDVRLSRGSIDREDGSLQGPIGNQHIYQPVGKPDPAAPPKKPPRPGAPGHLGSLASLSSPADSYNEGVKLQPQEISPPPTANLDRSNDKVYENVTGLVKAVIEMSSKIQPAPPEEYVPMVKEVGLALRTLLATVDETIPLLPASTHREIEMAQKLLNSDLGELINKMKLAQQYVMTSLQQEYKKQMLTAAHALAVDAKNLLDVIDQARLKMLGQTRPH

Compound	IC50 (PC3 cells [1])	IC50 (PC3 cells [2])	AUC(0-t) [3, 8]	clearance [3, 8]	half-life [3, 8]	Vd [3, 8]	AUC(0-t) ([3]; oral administration (10 mg/kg))	Cmax ([3]; oral administration (10 mg/kg))	Tmax ([3]; oral administration (10 mg/kg))	bioavailability ([3]; oral administration (10 mg/kg))	IC50 (PC3 cells [4])	AUC(0-t) ([3]; iv, injection (1 mg/kg))	clearance ([3]; iv, injection (1 mg/kg))	half-life ([3]; iv, injection (1 mg/kg))	Vd ([3]; iv, injection (1 mg/kg))	IC50 [6]	IC50 (FAK recombinant protein)	half-life ([3]; oral administration (10 mg/kg))	TGI(%) [5]	TGI(%) [7]
COc1cc(C(=O)NC2CCN(C)CC2)ccc1Nc1ncc(C(F)(F)F)c(Oc2cccc3c2C(=O)N(C)C32CC2)n1 [Compound 3, 3-methoxy-4-((4-((2′-methyl-3′-oxospiro[cyclopropane-1,1′-isoindolin]-4′-yl)oxy)-5-(trifluoromethyl)pyrimidin-2-yl)amino)-N-(1-methylpiperidin-4-yl)benzamide]	3.14 nM	> 2000 nM	248 ng·h/mL	67.1 mL/min/kg	2.14 h	6.14 L/kg	190 ng·h/mL	57.2 ng/mL	4 h	7.94%	0.45 nM	–	–	–	–	–	–	–	–	–
COc1cc(C(=O)NC2CCN(C)CC2)c(F)cc1Nc1ncc(C(F)(F)F)c(Oc2cccc3c2C(=O)N(C)C32CC2)n1 [Compound 4]	6.87 nM	> 2000 nM	–	–	–	–	2090 ng·h/mL	361 ng/mL	4 h	42.6%	2.01 nM	489 ng·h/mL	34 mL/min/kg	1.78 h	4.35 L/kg	0.025 nM	< 20 nM	–	61.48%	69.02%
COc1cc(N2CCN(C)CC2)ccc1Nc1ncc(C(F)(F)F)c(Oc2cccc3c2C(=O)N(C)C32CC2)n1 [Compound 73]	5.01 nM	> 10000 nM	–	–	–	–	2890 ng·h/mL	624 ng/mL	0.5 h	59.3%	1.99 nM	414 ng·h/mL	40.2 mL/min/kg	1.93 h	5.67 L/kg	0.028 nM	< 20 nM	3.32 h	74.07%	–
COc1cc(N2CCC(N3CCN(C)CC3)CC2)ccc1Nc1ncc(C(F)(F)F)c(Oc2cccc3c2C(=O)N(C)C32CC2)n1 [Compound 78]	5.83 nM	> 10000 nM	–	–	–	–	–	–	–	–	0.78 nM	–	–	–	–	< 0.01 nM	< 20 nM	–	–	–
COc1cc(C(=O)NC2CCN(C)CC2)ccc1Nc1ncc(Cl)c(Oc2cccc3c2C(=O)N(C)C32CC2)n1 [Compound 114, 4-((5-chloro-4-((2′-methyl-3′-oxospiro[cyclopropane-1,1′-isoindolin]-4′-yl)oxy)pyrimidin-2-yl)amino)-3-methoxy-N-(1-methylpiperidin-4-yl)benzamide]	2.85 nM	> 2000 nM	–	–	–	–	–	–	–	–	1.09 nM	–	–	–	–	0.39 nM	< 20 nM	–	–	–
COc1cc(C(=O)NC2CCN(C)CC2)c(F)cc1Nc1ncc(Cl)c(Oc2cccc3c2C(=O)N(C)C32CC2)n1 [Compound 117]	4.6 nM	> 2000 nM	–	–	–	–	7850 ng·h/mL	822 ng/mL	2 h	123%	5 to 50 nM	640 ng·h/mL	26.1 mL/min/kg	1.81 h	3.47 L/kg	0.7 nM	< 20 nM	2.22 h	–	62.86%
COc1cc(N2CCC(N3CCN(C)CC3)CC2)c(F)cc1Nc1ncc(C(F)(F)F)c(Oc2cccc3c2C(=O)N(C)C32CC2)n1 [Compound 121, 4′-((2-((5-fluoro-2-methoxy-4-(4-(4-methylpiperazin-1-yl)piperidin-1-yl)phenyl)amino)-5-(trifluoromethyl)pyrimidin-4-yl)oxy)-2′-methylspiro[cyclopropane-1,1′-isoindolin]-3′-one]	7.2 nM	> 2000 nM	–	–	–	–	–	–	–	–	< 5 nM	–	–	–	–	–	< 20 nM	–	–	–
COc1cc(N2CCC(N3CCN(C)CC3)CC2)ccc1Nc1ncc(Cl)c(Oc2cccc3c2C(=O)N(C)C32CC2)n1 [Compound 139]	5.2 nM	> 2000 nM	–	–	–	–	–	–	–	–	1.7 nM	–	–	–	–	0.56 nM	< 20 nM	–	–	–
COc1cc(N2CCN(C)CC2)ccc1Nc1ncc(Cl)c(Oc2cccc3c2C(=O)N(C)C32CC2)n1 [Compound 141]	13.9 nM	> 2000 nM	–	–	–	–	–	–	–	–	5 to 50 nM	–	–	–	–	–	< 20 nM	–	–	–

More lines, main results first:

IC50 (PC3 cells [1])	IC50 (PC3 cells [2])	AUC(0-t) [3, 8]	clearance [3, 8]	half-life [3, 8]	Vd [3, 8]	AUC(0-t) ([3]; oral administration (10 mg/kg))	Cmax ([3]; oral administration (10 mg/kg))	Tmax ([3]; oral administration (10 mg/kg))	bioavailability ([3]; oral administration (10 mg/kg))	IC50 (PC3 cells [4])	AUC(0-t) ([3]; iv, injection (1 mg/kg))	clearance ([3]; iv, injection (1 mg/kg))	half-life ([3]; iv, injection (1 mg/kg))	Vd ([3]; iv, injection (1 mg/kg))	IC50 [6]	IC50 (FAK recombinant protein)	half-life ([3]; oral administration (10 mg/kg))	Compound	TGI(%) [5]	TGI(%) [7]
6.9 nM	> 2000 nM	–	–	–	–	–	–	–	–	5 to 50 nM	–	–	–	–	–	< 20 nM	–	COc1cc(CN(C)C2CCN(C)CC2)ccc1Nc1ncc(Cl)c(Oc2cccc3c2C(=O)N(C)C32CC2)n1 [Compound 154]	–	–
1.86 nM	> 2000 nM	–	–	–	–	7450 ng·h/mL	815 ng/mL	2 h	67%	0.38 nM	1110 ng·h/mL	15 mL/min/kg	5.89 h	7.51 L/kg	0.02 nM	< 20 nM	3.37 h	COc1cc(N2CC3(CCN(C)CC3)C2)ccc1Nc1ncc(Br)c(Oc2cccc3c2C(=O)N(C)C32CC2)n1 [Compound 177, 4′-((5-bromo-2-((2-methoxy-4-(7-methyl-2,7-diazaspiro[3.5]nonan-2-yl)phenyl)amino)pyrimidin-4-yl)oxy)-2′-methylspiro[cyclopropane-1,1′-isoindolin]-3′-one]	–	–
6.22 nM	> 2000 nM	–	–	–	–	–	–	–	–	0.38 nM	–	–	–	–	–	< 20 nM	–	COc1cc(N2CC3(CCN(C)CC3)C2)c(F)cc1Nc1ncc(Br)c(Oc2cccc3c2C(=O)N(C)C32CC2)n1 [Compound 178]	–	82.41%
1.6 nM	> 2000 nM	–	–	–	–	–	–	–	–	0.33 nM	–	–	–	–	0.05 nM	< 20 nM	–	COc1cc(N2CC3(CCN(C)CC3)C2)ccc1Nc1ncc(C#N)c(Oc2cccc3c2C(=O)N(C)C32CC2)n1 [Compound 196, 2-((2-methoxy-4-(7-methyl-2,7-diazaspiro[3.5]nonan-2-yl)phenyl)amino)-4-((2′-methyl-3′-oxospiro[cyclopropane-1,1′-isoindolin]-4′-yl)oxy)pyrimidine-5-carbonitrile]	–	–
1.67 nM	> 2000 nM	–	–	–	–	–	–	–	–	2.42 nM	–	–	–	–	–	< 20 nM	–	COc1cc(N2CC3(CCN(C)CC3)C2)c(F)cc1Nc1ncc(C#N)c(Oc2cccc3c2C(=O)N(C)C32CC2)n1 [Compound 197]	–	–
